Target: T1, AR (Homo sapiens, UniProt P10275)
T1 sequence (P10275 669-920 limits assumed): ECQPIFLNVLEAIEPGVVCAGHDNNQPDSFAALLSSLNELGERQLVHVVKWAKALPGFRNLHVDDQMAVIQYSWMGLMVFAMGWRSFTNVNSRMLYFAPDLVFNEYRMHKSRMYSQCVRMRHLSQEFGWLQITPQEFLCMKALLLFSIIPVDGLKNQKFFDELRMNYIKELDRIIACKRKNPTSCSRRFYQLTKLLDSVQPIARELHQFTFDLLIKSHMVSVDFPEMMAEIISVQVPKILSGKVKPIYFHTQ
Test: GeneBlazer assay, inhibition against AR activity
Format: cell-based
Conditions: Table II
Text: Tables II, III and IV show % inhibition against AR activity at 10 μm within a GeneBlazer assay, and IC50 values (nM) in GeneBlazer assay.

| inhibition at 10 µM [%] | IC50 [nM] | Structure (SMILES) |
| --- | --- | --- |
| 68.1 |  | Oc1cccc(CN2CCN(c3c(Cl)cncc3Cl)CC2)c1 [Compound 22, 3-((4-(3,5-dichloropyridin-4-yl)piperazin-1-yl)methyl)phenol] |
| 112 | 790 | CCCCn1nnnc1C(c1cccc(O)c1)N1CCN(c2cc(C)ccc2C)CC1 (centres unmarked) [Compound 72, 3-((1-butyl-1H-tetrazol-5-yl)(4-(2,5-dimethylphenyl)piperazin-1-yl)methyl)phenol] |
| 101 |  | CC(C)n1nnnc1C(c1ccnc2ccccc12)N1CCN(c2c(Cl)cncc2Cl)CC1 (centres unmarked) [Compound 51, 4-((4-(3,5-dichloropyridin-4-yl)piperazin-1-yl)(1-isopropyl-1H-tetrazol-5-yl)methyl)quinoline] |
| 97.6 |  | CCCCn1nnnc1C(c1cccc2ccccc12)N1CCN(c2c(Cl)cncc2Cl)CC1 (centres unmarked) [Compound 38, 1-((1-butyl-1H-tetrazol-5-yl)(naphthalen-1-yl)methyl)-4-(3,5-dichloropyridin-4-yl)piperazine] |
| 102 | 2270 | CCCCn1nnnc1C(c1cccc(O)c1)N1CCN(c2ncc(C(F)(F)F)cc2Cl)CC1 (centres unmarked) [Compound 61, 3-((1-butyl-1H-tetrazol-5-yl)(4-(3-chloro-5-(trifluoromethyl)pyridin-2-yl)piperazin-1-yl)methyl)phenol] |
| 81.5 | 45.9 | CCCCn1nnnc1C(c1cccc(O)c1)N1CCN(c2c(Cl)cncc2Cl)CC1 (centres unmarked) [Compound 1, 3-((1-butyl-1H-tetrazol-5-yl)(4-(3,5-dichloropyridin-4-yl)piperazin-1-yl)methyl)phenol] |
| 94.5 |  | CCCCn1nnnc1C(c1cccc(O)c1)N1CCN(c2ccccc2OC)CC1 (centres unmarked) [Compound 59, 3-((1-butyl-1H-tetrazol-5-yl)(4-(2-methoxyphenyl)piperazin-1-yl)methyl)phenol] |
| 95.3 |  | CCCCn1nnnc1C(c1cccc(F)c1)N1CCN(c2c(Cl)cncc2Cl)CC1 (centres unmarked) [Compound 8] |
| 109 |  | CCCCn1nnnc1C(c1cccc(O)c1)N1CCN(c2c(C)cccc2C)CC1 (centres unmarked) [Compound 55, 3-((1-butyl-1H-tetrazol-5-yl)(4-(2,6-dimethylphenyl)piperazin-1-yl)methyl)phenol] |
| 91.4 |  | CC(C)(C)n1nnnc1C(c1ccncc1)N1CCN(c2c(Cl)cncc2Cl)CC1 (centres unmarked) [Compound 31, 1-((1-(tert-butyl)-1H-tetrazol-5-yl)(pyridin-4-yl)methyl)-4-(3,5-dichloropyridin-4-yl)piperazine] |
| 101 |  | Clc1cncc(Cl)c1N1CCN(Cc2cc3ccccc3o2)CC1 [Compound 23, 1-(benzofuran-2-ylmethyl)-4-(3,5-dichloropyridin-4-yl)piperazine] |
| 108 |  | CCCCn1nnnc1C(c1cccc(OC)c1)N1CCN(c2c(Cl)cncc2Cl)CC1 (centres unmarked) [Compound 7, 1-((1-butyl-1H-tetrazol-5-yl)(3-methoxyphenyl)methyl)-4-(3,5-dichloropyridin-4-yl)piperazine] |
| 11.9 |  | CCCCn1nnnc1C(c1cccc(O)c1)N1CCN(C/C=C/c2ccccc2)CC1 (centres unmarked) [Compound 71, (E)-3-((1-butyl-1H-tetrazol-5-yl)(4-cinnamylpiperazin-1-yl)methyl)phenol] |
| 120 | 134 | Oc1cccc(C(c2nnnn2Cc2ccccc2)N2CCN(c3c(Cl)cncc3Cl)CC2)c1 (centres unmarked) [Compound 19, 3-((1-benzyl-1H-tetrazol-5-yl)(4-(3,5-dichloropyridin-4-yl)piperazin-1-yl)methyl)phenol] |
| 106 |  | CCCCn1nnnc1C(c1cccc(O)c1)N1CCN(c2cccc(C)c2C)CC1 (centres unmarked) [Compound 66, 3-((1-butyl-1H-tetrazol-5-yl)(4-(2,3-dimethylphenyl)piperazin-1-yl)methyl)phenol] |
| 114 | 182 | CC(C)(C)n1nnnc1C(c1cc2ccccc2[nH]1)N1CCN(c2c(Cl)cncc2Cl)CC1 (centres unmarked) [Compound 47, 2-((1-(tert-butyl)-1H-tetrazol-5-yl)(4-(3,5-dichloropyridin-4-yl)piperazin-1-yl)methyl)-1H-indole] |
| 98.4 |  | CCCCn1nnnc1C(c1ccc2c(c1)OCO2)N1CCN(c2c(Cl)cncc2Cl)CC1 (centres unmarked) [Compound 11, 1-(benzo[d][1,3]dioxol-5-yl(1-butyl-1H-tetrazol-5-yl)methyl)-4-(3,5-dichloropyridin-4-yl)piperazine] |
| 102 |  | CCCCn1nnnc1C(c1ccc(F)cc1)N1CCN(c2c(Cl)cncc2Cl)CC1 (centres unmarked) [Compound 36, 1-((1-butyl-1H-tetrazol-5-yl)(4-fluorophenyl)methyl)-4-(3,5-dichloropyridin-4-yl)piperazine] |
| 91.6 |  | CCCCn1nnnc1C(c1ccc(OC)cc1)N1CCN(c2c(Cl)cncc2Cl)CC1 (centres unmarked) [Compound 32, 1-((1-butyl-1H-tetrazol-5-yl)(4-methoxyphenyl)methyl)-4-(3,5-dichloropyridin-4-yl)piperazine] |
| 100 |  | CCCCn1nnnc1C(c1ccc(C)o1)N1CCN(c2c(Cl)cncc2Cl)CC1 (centres unmarked) [Compound 48, 1-((1-butyl-1H-tetrazol-5-yl)(5-methylfuran-2-yl)methyl)-4-(3,5-dichloropyridin-4-yl)piperazine] |
| 1.04 |  | CCCCn1nnnc1C(c1cccc(O)c1)N1CCN(c2ccncc2)CC1 (centres unmarked) [Compound 27, 3-((1-butyl-1H-tetrazol-5-yl)(4-(pyridin-4-yl)piperazin-1-yl)methyl)phenol] |
| 86 |  | CC(C)n1nnnc1C(c1cccc(O)c1)N1CCN(c2c(Cl)cncc2Cl)CC1 (centres unmarked) [Compound 15, 3-((4-(3,5-dichloropyridin-4-yl)piperazin-1-yl)(1-isopropyl-1H-tetrazol-5-yl)methyl)phenol] |
| 106 |  | CC(C)(C)n1nnnc1C(c1ccc(C#N)cc1)N1CCN(c2c(Cl)cncc2Cl)CC1 (centres unmarked) [Compound 35, 4-((1-(tert-butyl)-1H-tetrazol-5-yl)(4-(3,5-dichloropyridin-4-yl)piperazin-1-yl)methyl)benzonitrile] |
| 110 | 523 | CCCCn1nnnc1C(c1ccnc2ccccc12)N1CCN(c2c(Cl)cncc2Cl)CC1 (centres unmarked) [Compound 3, 4-((1-butyl-1H-tetrazol-5-yl)(4-(3,5-dichloropyridin-4-yl)piperazin-1-yl)methyl)quinoline] |
| 98 | 1600 | CCCCn1nnnc1C(c1cccc(O)c1)N1CCN(c2c(Cl)cccc2Cl)CC1 (centres unmarked) [Compound 25, 3-((1-butyl-1H-tetrazol-5-yl)(4-(2,6-dichlorophenyl)piperazin-1-yl)methyl)phenol] |
| 95.3 |  | CCCCn1nnnc1C(C)N1CCN(c2c(Cl)cncc2Cl)CC1 (centres unmarked) [Compound 6, 1-(1-(1-butyl-1H-tetrazol-5-yl)ethyl)-4-(3,5-dichloropyridin-4-yl)piperazine] |
| 102 |  | CC(C)(C)n1nnnc1C(c1cccc(O)c1)N1CCN(c2c(Cl)cncc2Cl)CC1 (centres unmarked) [Compound 16, 3-((1-(tert-butyl)-1H-tetrazol-5-yl)(4-(3,5-dichloropyridin-4-yl)piperazin-1-yl)methyl)phenol] |
| 100 |  | CCCCn1nnnc1C(c1ccncc1)N1CCN(c2c(Cl)cncc2Cl)CC1 (centres unmarked) [Compound 30, 1-((1-butyl-1H-tetrazol-5-yl)(pyridin-4-yl)methyl)-4-(3,5-dichloropyridin-4-yl)piperazine] |

Source: US20220062278A1, “SMALL MOLECULE INHIBITORS OF THE ANDROGEN RECEPTOR ACTIVITY AND/OR EXPRESSION AND USES THEREOF” (Arizona Board of Regents on Behalf of the Univeristy of …, priority 2018, published 2022)
